Results: US20110269790A1, “NOVEL THIENOPYRIDINES AS PHARMACOLOGICALLY ACTIVE AGENTS” (priority 2009, published 2011)

Columns and labels:
[1] = system: Wistar rats; assay: Antidiabetic activity by starch loaded model; assay type: in vivo, rat; details: test compounds 100 mg/kg, Acarbose 10 mg/kg oral
Excerpt: Experimental Animals—Wistar rats of either sex were used for the present study. Animals selected for use in the study were of uniform age and body weight. A minimum of 40 rats, from which eventually 20 rats were selected. Their body weights were in the range of 150-180 gm. The health status of the animals was ascertained by a veterinary surgeon. […] Animals were acclimatized for at least two weeks prior to start of the study. The animals were provided with pellet diet manufactured by NIN, HYDERABAD, India and drinking water adlibitum.
Compound Preparation The required quantity of the synthetic compounds were weighed and made suspension with gum acacia (2%). The test compounds were administered to all rats by per oral route. Acarbose suspension was also prepared in gum acasia suspension and given by oral route.
Antidiabetic activity by Starch model: The method of Rao et al., 2009;Tiwari et al was employed. Animals were fasted over night (12 hrs). Basal blood glucose levels were estimated for all the animals prior to dosing in test and standard groups. This was designated as “0” min reading. […] After test compounds administration animals in all three groups received Starch aqueous solution (2 gm/kg body weight). Blood glucose levels were monitored at 30, 60, 90 and 120 min after the administration of Starch in all the three groups. The percentage of increase in, blood glucose levels was calculated with respect to the control group at each time point.

[2] = target: T1, porcine pancreatic α-amylase (Sus scrofa, UniProt P00690); assay: α-Amylase inhibition assay; assay type: biochemical; details: 10 mg per ml; a/b marks the respective control (Control-1 2.147, Control-2 3.429)
T1 construct: α-amylase [EC 3.2.1.1) Type VI B: from porcine pancreas]; purchased Sigma Chemical Co., St Louis, Mo., USA; host or cells: porcine pancreas (natural source)
T1 sequence (P00690 16-511): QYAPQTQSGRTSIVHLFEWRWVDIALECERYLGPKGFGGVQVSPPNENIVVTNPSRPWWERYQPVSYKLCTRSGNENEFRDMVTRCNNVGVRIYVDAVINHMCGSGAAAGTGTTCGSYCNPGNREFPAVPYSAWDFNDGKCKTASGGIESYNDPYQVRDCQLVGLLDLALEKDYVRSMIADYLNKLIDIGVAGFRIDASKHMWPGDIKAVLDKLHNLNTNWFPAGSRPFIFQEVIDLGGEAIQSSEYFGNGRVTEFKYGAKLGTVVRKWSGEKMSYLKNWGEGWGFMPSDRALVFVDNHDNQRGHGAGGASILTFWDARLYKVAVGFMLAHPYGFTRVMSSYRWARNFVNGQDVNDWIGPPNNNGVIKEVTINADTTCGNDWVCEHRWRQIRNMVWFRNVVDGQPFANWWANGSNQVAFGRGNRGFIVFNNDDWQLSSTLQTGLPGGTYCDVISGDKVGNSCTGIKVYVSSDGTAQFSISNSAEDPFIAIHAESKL
Excerpt: (§1) Chemicals: α-Glucosidase [(EC 3.2.1.20) Type I: from bakers yeast], rat intestinal acetone powder (as a source of crude intestinal α-glucosidase), α-amylase [EC 3.2.1.1) Type VI B: from porcine pancreas], p-nitrophenyl α-D-glucopyranoside, 3,5-dinitro salicylic acid, soluble potato starch and 1-deoxyrojirimycine, were purchased from Sigma Chemical Co., St Louis, Mo., USA. Other chemicals of analytical grade were procured from indigenous manufacturers.
a-Amylase Inhibition Assay: The assay method was adopted from Ali et al. (2006) and modified accordingly to suite microplate reading. In brief, 40 μL of test samples (10 mg/mL DMSO) were reconstituted in 160 μL of 20 mM phosphate buffer (pH 6.9) containing 6.7 mM sodium chloride in 2 mL Eppendorf tubes and incubated with 200 μL of porcine pancreatic α-amylase) (4 U/mL prepared in ice cold distilled water) for 5 min. The reaction was started by the addition of 400-μL soluble potato starch solution (0.5% w/v in 20 mM phosphate buffer, pH 6.9). Exactly 3 min after incubation, 400 μL DNS color reagent (1.0 g of 3,5-dinitrosalicylic acid, 30 g of sodium potassium tartrate and 20 mL of 2 N NaOH to a final volume of 100 mL in distilled water) was added. Closed tubes were placed in a water bath (85-90° C.) for 10 min to develop color and cooled thereafter. 50 μL of reaction mixtures was diluted with 175 μL of distilled water in a 96-well microplate. α-Amylase activity was determined by measuring the absorbance of the mixture at 540 nm spectrophotometrically as above. Individual blanks were prepared to correct for the background absorbance due to test samples. In this case DNS solution was added in tubes before addition of substrate. The percentage inhibition of enzyme activity was calculated as above. All the tests were run in duplicate in this assay.

[3] = system: crude intestinal α-glucosidase; assay: In-vitro mammalian (rat intestinal) α-glucosidase inhibition assay; assay type: biochemical; details: highest concentration 5 mg/ml
Excerpt: as §1
(§2) In-vitro a-Glucosidase Inhibition Assay: Yeast and intestinal a-glucosidase inhibitory activities were determined as per reported methods (Babu et al., 2004; Mc Dougall et al., 2005). Rat intestinal acetone powder in normal saline (100% w/v) was sonicated properly and the supernatant was used as a source of crude intestinal a-glucosidase after centrifugation. In brief, 20 μl, of test samples (100 mg/ml DMSO solution) were reconstituted in 100 μl of 100 mM-Phosphate buffer (pH 6.8) in a 96-well microplate and incubated with 50 μl yeast a-glucosidase (0.76 μ/ml in same buffer) or crude intestinal a-glucosidase for 5 min before 50-μl substrate (5 mM, […] prepared in same buffer) was added. Release of p-nitrophenyol was measured at 405 nm spectrophotometrically (Spectra Mas Plus 384, Molecular Device corporation, Sunnyvale, Calif., USA) 5 min after incubation with substrate, individual blank for test samples were prepared to correct background absorbance where the substrate was replaced with 50 μl of buffer. The control sample contained 20 μl DMSO in place of test samples. The percentage of enzyme inhibition was calculated as (A−B/A)×100 where A is represents the absorbance of the control without test samples, and B represents the absorbance in the presence of test samples. […] The IC50 values were calculated by applying logarithmic regression analysis from the mean inhibitory values.

[4] = target: T2, yeast α-glucosidase (Saccharomyces cerevisiae, UniProt P53341); assay: In-vitro yeast α-glucosidase inhibition assay; assay type: biochemical, bakers yeast
T2 construct: α-Glucosidase [(EC 3.2.1.20) Type I: from bakers yeast]
Excerpt: as §1, §2

[5] = system: mice; assay: Adenosine mediated bronchoconstriction and lung inflammation in an allergic mouse model; assay type: in vivo; parameters: Total count: unit not given here; details: BAL fluid cells; 100 mg/kg oral
Protocol: Thienopyridines were proven as potent cytotoxic and anti-inflammatory agents in the previous experimental results. In cytotoxic MTT assay, activity of these molecules may be due to the involvement of adenosine receptors. Further, to find the bronchodilatory activity of these moieties and to find the involvement of adenosine receptors in their action, non-invasive and invasive adenosine mediated bronchoconstriction and lung inflammation in an allergic mouse model was performed.
Male mice, 6-8 weeks of age, free of specific pathogens were obtained from National Institute of Nutrition. The animals were maintained on a ragweed-free diet. All experimental protocols used in this study were under a protocol approved by animal ethical committee. Sensitization was performed according to the modified procedure described by Fan et al, 2002. Mice were sensitized on days 1 and 6 with i.p. injections of ragweed allergen (200 μg/200 μl of water for injection). Non-sensitized control animals received only water for injection with the same volumes. Ten days after sensitization, the mice were placed in plexiglas chamber and challenged with 0.5% ragweed or with 0.9% saline as a control for twenty minutes both in the morning and evening for three days. Then mice were divided into different groups consisting of six animals each. The groups including a control without sensitization; a sensitized group and a standard group along with groups of the test molecules were separated. Twenty-four hours after last challenge with ragweed, the mice were given an oral dose of test molecules and theophylline (100 mg/kg body weight) as acacia suspension. Two hours after administration of the oral dose, the mice were challenged with adenosine solution (24 mg/ml). The variation in respiration was recorded after anaesthetizing them with pentobarbitone sodium (0.1 ml 200 mg/ml ip) using kymograph. Then, mice were sacrificed and trachea was cannulated to collect the bronchoalveolar lavage fluid. This was performed by pumping 1 ml phosphate buffered saline into lungs through tracheal cannula and collecting the sample. Analysis of BAL fluid was performed to get the cellular differentials. The BAL fluid was centrifugated at 1500 rpm for six minutes at room temparature. After removing the supernatant, BAL cells were resuspended in 1 ml of phosphate buffered saline. Total cells were then counted manually in a hemocytometer chamber. A differential count of at least 300 cells was made according to the standard morphologic criteria and results were mentioned in table.

[6] = system: Wistar rats; assay: Carrageenan induced paw edema model; assay type: in vivo, rat; details: Rattus norvegicus, po, 3 h
Protocol: Male Albino Wistar rats of 150-180 grams were used for the experiments.
Anti-inflammatory activity of test compounds was evaluated in Wistar rats employing the method of Winter et al (1963) and Diwan et al (1989). Male Wistar rats were used for the study. […] The different test compounds were administered to the animals in the test group at the dose of 100 mg/kg, by oral route. Animals in the standard group received Indomethacin at the dose of 10 mg/kg, by oral route. All test and standard compounds were administered as 1% gum acacia suspension. Rats in the control group received the vehicle solution without drugs. One hour after test drugs administration, rats in all the groups were challenged with 0.1 ml of 1% Carrageenan in the sub plantar region of right hind paw. A zero hour paw volume was measured for all the rats using digital plethysmometer (Ugo Basile, Italy) before the administration of carrageenan for all groups. Paw volumes were again measured 3 hrs after the challenge of Carrageenan. The percent inhibition of paw volume for each rat in treated groups was calculated by comparing with mean paw volume of control group and expressed as mean (±SE) percent inhibition of paw volume for each test. In a preliminary study the compounds that have shown good activity were evaluated for dose response study by using above procedure.

T2 sequence (P53341 whole entry): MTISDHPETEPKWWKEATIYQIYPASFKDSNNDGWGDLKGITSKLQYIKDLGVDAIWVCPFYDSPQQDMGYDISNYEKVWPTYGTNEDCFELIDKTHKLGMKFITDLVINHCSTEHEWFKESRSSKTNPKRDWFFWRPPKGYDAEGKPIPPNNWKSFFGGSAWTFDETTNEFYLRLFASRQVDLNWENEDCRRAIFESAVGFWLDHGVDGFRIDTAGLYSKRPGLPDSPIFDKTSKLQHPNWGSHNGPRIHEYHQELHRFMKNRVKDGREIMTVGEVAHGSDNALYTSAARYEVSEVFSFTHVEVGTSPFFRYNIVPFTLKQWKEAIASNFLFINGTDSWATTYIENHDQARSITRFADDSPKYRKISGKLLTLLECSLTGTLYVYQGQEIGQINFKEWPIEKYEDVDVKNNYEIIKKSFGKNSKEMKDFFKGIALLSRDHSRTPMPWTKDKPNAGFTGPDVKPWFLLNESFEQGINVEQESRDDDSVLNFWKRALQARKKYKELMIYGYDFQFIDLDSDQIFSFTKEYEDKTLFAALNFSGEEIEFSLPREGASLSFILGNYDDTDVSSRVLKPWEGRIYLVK

SMILES | % Increase in glucose, 30 min ([1]; 30 min after starch) | Blood glucose level, 30 min ([1]; 30 min after starch, in mg/dL (unit assumed)) | % Increase in glucose, 60 min ([1]; 60 min after starch) | Blood glucose level, 60 min ([1]; 60 min after starch, in mg/dL (unit assumed)) | % Increase in glucose, 90 min ([1]; 90 min after starch) | Blood glucose level, 90 min ([1]; 90 min after starch, in mg/dL (unit assumed)) | % Increase in glucose, 120 min ([1]; 120 min after starch) | Blood glucose level, 120 min ([1]; 120 min after starch, in mg/dL (unit assumed)) | Blood glucose level, 0 min ([1]; basal, prior to dosing, starch 2 gm/kg, in mg/dL (unit assumed)) | Maltose released [2] | Mammalian α Glucosidase Inhibition (Mean ± S.E) [3] | Yeast α-glucosidase enzyme inhibitory activity (in words) [4] | Differential count (%) Eosinophils [5] | Differential count (%) Lymphocytes [5] | Differential count (%) Monocytes [5] | Total count [5] | change in vivo at 100 mg/kg ([6]; read-out: % Increase in Paw Volume) | inhibition in vivo at 100 mg/kg ([6]; read-out: % Inhibition (paw volume))
C[C@H]1O[C@H](O[C@H]2[C@H](O)[C@@H](O)[C@@H](O[C@H]3[C@H](O)[C@@H](O)C(O)O[C@@H]3CO)O[C@@H]2CO)[C@H](O)[C@@H](O)[C@@H]1N[C@H]1C=C(CO)[C@@H](O)[C@H](O)[C@H]1O (stereo partly drawn) [Acarbose, reference compound] | 23.55% | 103.17 | 32.03% | 110.17 | 31.78% | 109.83 | 30.27% | 108.62 | 83.50 | – | – | – | – | – | – | – | – | –
Nc1c2c(nc3sc4c(c13)CCCCC4)CCCC2 [BN-19, 2,3,4,7,8,9,10,11-Octahydro-1H-cyclohepta[4,5]thieno[2,3-b]quinolin-12-Amine] | – | – | – | – | – | – | – | – | – | 3.282 mg/mL | 0.0 ± 0.0% | moderate inhibitory activity | 10% | 80% | 10% | 11.5 | 90.4 ± 11.4% | 0%
